Our source for the EC90 values is patent publication US8716263B2, “Synthesis of purine nucleosides” (Gilead Pharmasset LLC, priority 2008, dated 2014).

Molecules are shown by their SMILES. Where two headings read alike, the source gives them in different places.

Usually EC90 stands for the point of the concentration-response curve where the effect stands at 90%.

The assay relates to HCV replicon RNA-containing Huh7 cells (clone A cells). Description: HCV replicon assay. The class given is cell-based. The conditions noted are these: read-out: CloneA EC90. The method, then:
HCV replicon assay. HCV replicon RNA-containing Huh7 cells (clone A cells; Apath, LLC, St. Louis, Mo.) were kept at exponential growth in Dulbecco's modified Eagle's medium (high glucose) containing 10% fetal bovine serum, 4 mM L-glutamine and 1 mM sodium pyruvate, 1×nonessential amino acids, and G418 (1,000 μg/m1). Antiviral assays were performed in the same medium without G418. Cells were seeded in a 96-well plate at 1,500 cells per well, and test compounds were added immediately after seeding. Incubation time 4 days. At the end of the incubation step, total cellular RNA was isolated (RNeasy 96 kit; Qiagen). Replicon RNA and an internal control (TaqMan rRNA control reagents; Applied Biosystems) were amplified in a single-step multiplex RT-PCR protocol as recommended by the manufacturer. The HCV primers and probe were designed with Primer Express software (Applied Biosystems) and covered highly conserved 5′-untranslated region (UTR) sequences (sense, 5′-AGCCATGGCGTTAGTA(T)GAGTGT-3′ (SEQ ID NO: 1), and antisense, 5′-TTCCGCAGACCACTATGG-3′ (SEQ ID NO: 2); probe, 5′-FAM-[…]-TAMRA-3′ SEQ ID NO: 3)).
To express the antiviral effectiveness of a compound, the threshold RT-PCR cycle of the test compound was subtracted from the average threshold RT-PCR cycle of the no-drug control (ΔCtHCV). A ΔCt of 3.3 equals a 1-log 10 reduction (equal to the 90% effective concentration [EC90]) in replicon RNA levels. The cytotoxicity of the test compound could also be expressed by calculating the ΔCtrRNA values. The ΔΔCt specificity parameter could then be introduced (ΔCtHCV−ΔCtrRNA) in which the levels of HCV RNA are normalized for the rRNA levels and calibrated against the no-drug control.

Where [1] appears, read: clone A Huh7 replicon cells, incubation time 4 days, replicon RNA by RT-PCR, ΔCt of 3.3 = 1-log 10 reduction = EC90.

On to `COc1nc(N)nc2c1ncn2[C@@H]1O[C@H](COP(=O)(N[C@@H](C)C(=O)OC(C)C)Oc2ccccc2)[C@@H](O)[C@@]1(C)F` (stereo partly drawn) [Compound 11, (2S)-isopropyl 2-((((2R,3R,4R,5R)-5-(2-amino-6-methoxy-9H-purin-9-yl)-4-fluoro-3-hydroxy-4-methyltetrahydrofuran-2-yl)methoxy) (phenoxy)phosphorylamino)propanoate], for which, where the note is “Hepatitis C virus, Huh-7, 96 h”, the concentration for an effect of 90% (EC90) worked out at 20 nM.
Regarding `COC(=O)[C@H](C)NP(=O)(OC[C@H]1O[C@@H](n2cnc3c(N4CCC4)nc(N)nc32)[C@](C)(F)[C@@H]1O)Oc1ccccc1` (stereo partly drawn) [Compound 12], the EC90 under setting [1] is 70 nM.
For `C[C@H](NP(=O)(OC[C@H]1O[C@@H](n2cnc3c(O)nc(N)nc32)[C@](C)(F)[C@@H]1O)Oc1ccccc1)C(=O)OC1CCCC1` (stereo partly drawn) [Compound 14, (2S)-cyclopentyl 2-((((2R,3R,4R,5R)-5-(2-amino-6-hydroxy-9H-purin-9-yl)-4-fluoro-3-hydroxy-4-methyltetrahydrofuran-2-yl)methoxy)(phenoxy)phosphorylamino)propanoate], the EC90 (Hepatitis C virus, Huh-7, 96 h) came to 130 nM.
On the same count and under the same terms, next, `COP1(=O)OC[C@H]2O[C@@H](n3cnc4c(N5CCC5)nc(N)nc43)[C@](C)(F)[C@@H]2O1` (stereo partly drawn) [Compound 15, 6-Azetidin-1-yl-9-((4aR,6R,7R,7aR)-7-fluoro-2-methoxy-7-methyl-2-oxo-tetrahydrofuro[3,2-d][1,3,2]dioxaphosphinin-6-yl)-9H-purin-2-ylamine]: 710 nM.
On to `COc1nc(N)nc2c1ncn2[C@@H]1O[C@@H]2CO[P@](=O)(OC3CCC3)O[C@H]2[C@@]1(C)F` [Compound 23, 6-Methoxy-9-((2R,4aR,6R,7R,7aR)-7-fluoro-2-cyclobutoxy-7-methyl-2-oxo-tetrahydro-2λ^5-furo[3,2-d][1,3,2]dioxaphosphinin-6-yl)-9H-purin-2-ylamine], for which, for the setting “Hepatitis C virus, Huh-7, 96 h, clone A Huh7 replicon cells, incubation time 4 days, replicon RNA by RT-PCR, ΔCt of 3.3 = 1-log 10 reduction = EC90”, the EC90 amounted to 130 nM.
On to `COc1nc(N)nc2c1ncn2[C@@H]1O[C@@H]2CO[P@](=O)(OC3CCCC3)O[C@H]2[C@@]1(C)F` [Compound 24, 6-Methoxy-9-((2R,4aR,6R,7R,7aR)-7-fluoro-2-cyclopentoxy-7-methyl-2-oxo-tetrahydro-2μ^5-furo[3,2-d][1,3,2]dioxaphosphinin-6-yl)-9H-purin-2-ylamine], for which the concentration for an effect of 90% (EC90) under setting [1] stood at 37 nM.
